Laboratory results reported in patent US9657351B2, “MRNA-based gene expression for personalizing patient cancer therapy with an MDM2 antagonist” (Hoffmann-La Roche Inc., priority 2013, dated 2017).

Assays:
Test in all cases: COMPOUND A In Vitro Assay
Type in all cases: cell-based
SW403 = details: Homo sapiens, SW-403, Intestine, large, colon, TP53 Mutant
Procedure, shortened: (§1)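 Human cancer cell lines of varied tumour types are screened at high throughput with the MDM2 inhibitor COMPOUND A (RG7112); IC50 defines response. Lines reaching IC50>=10 count as resistant, whereas IC50<=1 counts as sensitive.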

NCI-H250 = details: Homo sapiens, Lung, TP53 NA
Procedure, shortened: as §1

PANC-1 = details: Homo sapiens, Pancreas, TP53 Mutant
Procedure, shortened: as §1

NCI-H596 = details: Homo sapiens, Lung, TP53 Mutant
Procedure, shortened: as §1

BT-474 = details: Homo sapiens, Breast, mammary gland, TP53 Mutant
Procedure, shortened: as §1

IM-9 = details: Homo sapiens
Procedure, shortened: as §1

NCI-H1703 = details: Homo sapiens, Lung, TP53 Mutant
Procedure, shortened: as §1

RPMI-2650 = details: Homo sapiens
Procedure, shortened: as §1

RL95-2 = details: Homo sapiens, Uterus, endometrium, TP53 Mutant
Procedure, shortened: as §1

SW780 = details: Homo sapiens
Procedure, shortened: as §1

HCC1500 = details: Homo sapiens, Breast, mammary gland, TP53 Wild type
Procedure, shortened: as §1

HL-60 = details: Homo sapiens, Blood, TP53 Mutant
Procedure, shortened: as §1

BFTC-905 = details: Homo sapiens, Urinary, bladder, TP53 Mutant
Procedure, shortened: as §1

KYSE-520 = details: Homo sapiens, Esophagus, TP53 Mutant
Procedure, shortened: as §1

NCI-H1975 = details: Homo sapiens, Lung, TP53 Mutant
Procedure, shortened: as §1

U-937 = details: Homo sapiens, Pleura, TP53 Mutant
Procedure, shortened: as §1

SW626 = details: Homo sapiens, Ovary, TP53 Mutant
Procedure, shortened: as §1

PC-13 = details: Homo sapiens, Lung, TP53 Mutant
Procedure, shortened: as §1

WiDr = details: Homo sapiens, Intestine, large, colon, TP53 Mutant
Procedure, shortened: as §1

Calu-3 = details: Homo sapiens, Lung, TP53 Mutant
Procedure, shortened: as §1

NCI-H1437 = details: Homo sapiens, Lung, TP53 Mutant
Procedure, shortened: as §1

NIH:OVCAR-3 = details: Homo sapiens, Ovary, TP53 Mutant
Procedure, shortened: as §1

SK-N-AS = details: Homo sapiens, Brain, TP53 Mutant
Procedure, shortened: as §1

NUGC-4 = details: Homo sapiens
Procedure, shortened: as §1

HCC1187 = details: Homo sapiens, Breast, mammary gland, TP53 Mutant
Procedure, shortened: as §1

NCI-H82 = details: Homo sapiens, Lung, TP53 Wild type
Procedure, shortened: as §1

NCI-H2171 = details: Homo sapiens, Lung, TP53 Mutant
Procedure, shortened: as §1

UM-UC-3 = details: Homo sapiens, UMUC3, Urinary, bladder, TP53 Mutant
Procedure, shortened: as §1

D-283MED = details: Homo sapiens, D283 Med, tissue NA, TP53 Wild type
Procedure, shortened: as §1

U-138 MG = details: Homo sapiens, U138-MG, Brain, TP53 Mutant
Procedure, shortened: as §1

A-375 = details: Homo sapiens
Procedure, shortened: as §1

NCI-H1755 = details: Homo sapiens, Lung, TP53 Mutant
Procedure, shortened: as §1

NCI-H146 = details: Homo sapiens, Lung, TP53 Mutant
Procedure, shortened: as §1

Y79 = details: Homo sapiens
Procedure, shortened: as §1

Capan-1 = details: Homo sapiens, Pancreas, TP53 Mutant
Procedure, shortened: as §1

HCC827 = details: Homo sapiens, Lung, TP53 Mutant
Procedure, shortened: as §1

Structure (SMILES): CCOc1cc(C(C)(C)C)ccc1C1=N[C@@](C)(c2ccc(Cl)cc2)[C@@](C)(c2ccc(Cl)cc2)N1C(=O)N1CCN(CCCS(C)(=O)=O)CC1 [COMPOUND A]
- IC50 (SW403): 6 µM
- IC50 (NCI-H250): 12 µM
- IC50 (PANC-1): 22 µM
- IC50 (NCI-H596): 18 µM
- IC50 (BT-474): 19 µM
- IC50 (IM-9; IM-9, IM-9, Lymphocyte B, peripheral blood, TP53 Wild type): 0.14 µM
- IC50 (IM-9; IM-9, IM-9 cells): 0.1 µM
- IC50 (NCI-H1703): 9.1 µM
- IC50 (RPMI-2650; RPMI-2650, RPMI-2650, Nasal septum, TP53 Wild type): 0.77 µM
- IC50 (RPMI-2650; RPMI-2650, RPMI-2650 cells): 0.8 µM
- IC50 (RL95-2): 9.3 µM
- IC50 (SW780; SW780, SW780, Urinary, bladder, TP53 Wild type): 0.97 µM
- IC50 (SW780; SW780, SW780 cells): 1 µM
- IC50 (HCC1500): 1 µM
- IC50 (HL-60): 7 µM
- IC50 (BFTC-905): 19 µM
- IC50 (KYSE-520): 10 µM
- IC50 (NCI-H1975): 16 µM
- IC50 (U-937): 5.2 µM
- IC50 (SW626): 9.5 µM
- IC50 (PC-13): 14 µM
- IC50 (WiDr): 8.9 µM
- IC50 (Calu-3): 11 µM
- IC50 (NCI-H1437): 10 µM
- IC50 (NIH:OVCAR-3): 17 µM
- IC50 (SK-N-AS): 13 µM
- IC50 (NUGC-4; NUGC-4, NUGC-4, Stomach, TP53 Wild type): 0.38 µM
- IC50 (NUGC-4; NUGC-4, NUGC-4 cells): 0.4 µM
- IC50 (HCC1187): 12 µM
- IC50 (NCI-H82): 4.9 µM
- IC50 (NCI-H2171): 11 µM
- IC50 (UM-UC-3): 15 µM
- IC50 (D-283MED): 1.2 µM
- IC50 (U-138 MG): 29 µM
- IC50 (A-375; A-375, A-375, Skin, TP53 Wild type): 0.32 µM
- IC50 (A-375; A-375, A-375 cells): 0.3 µM
- IC50 (NCI-H1755): 7.8 µM
- IC50 (NCI-H146): 8.3 µM
- IC50 (Y79; Y79, Y79, Eye, retina, TP53 Wild type): 0.61 µM
- IC50 (Y79; Y79, Y79 cells): 0.6 µM
- IC50 (Capan-1): 20 µM
- IC50 (HCC827): 8.9 µM
